Measurements as given in article PMC5467912, “Asymmetric regulation of quorum-sensing receptors drives autoinducer-specific gene expression programs in Vibrio cholerae” (PLoS Genetics, 2017).
Where “and” joins values, the source holds several entries; their conditions need not be identical. Identical values can stand only once. Like-named read-outs stand apart in the source and are kept apart here.

Legend:
[1] = target: T1, CqsS (Vibrio cholerae serotype O1, UniProt Q9KM66); assay: cell-based; settings: for Light production: strain WN1102; for RLU: Strain WN1102
T1 construct: endogenous in cells; host or cells: V. cholerae WN1102 (ΔcqsA ΔluxQ/pBB1), derived from C6706str2

[2] = system: QS-controlled luxCDABE operon; format: cell-based
[3] = target: T1, CqsS; format: cell-based; settings: Strain WN1102
[4] = system: T2, CqsS D618N; assay: CqsS D618N autophosphorylation in inverted membrane vesicles, 32P (Fig 7A); format: biochemical, Vibrio cholerae
T2 construct: made in house; host or cells: E. coli C43 (DE3), pET21b; used as inverted membrane vesicles

[5] = ΔcqsA strain carrying luciferase

T1 sequence (Q9KM66 whole entry, looked up): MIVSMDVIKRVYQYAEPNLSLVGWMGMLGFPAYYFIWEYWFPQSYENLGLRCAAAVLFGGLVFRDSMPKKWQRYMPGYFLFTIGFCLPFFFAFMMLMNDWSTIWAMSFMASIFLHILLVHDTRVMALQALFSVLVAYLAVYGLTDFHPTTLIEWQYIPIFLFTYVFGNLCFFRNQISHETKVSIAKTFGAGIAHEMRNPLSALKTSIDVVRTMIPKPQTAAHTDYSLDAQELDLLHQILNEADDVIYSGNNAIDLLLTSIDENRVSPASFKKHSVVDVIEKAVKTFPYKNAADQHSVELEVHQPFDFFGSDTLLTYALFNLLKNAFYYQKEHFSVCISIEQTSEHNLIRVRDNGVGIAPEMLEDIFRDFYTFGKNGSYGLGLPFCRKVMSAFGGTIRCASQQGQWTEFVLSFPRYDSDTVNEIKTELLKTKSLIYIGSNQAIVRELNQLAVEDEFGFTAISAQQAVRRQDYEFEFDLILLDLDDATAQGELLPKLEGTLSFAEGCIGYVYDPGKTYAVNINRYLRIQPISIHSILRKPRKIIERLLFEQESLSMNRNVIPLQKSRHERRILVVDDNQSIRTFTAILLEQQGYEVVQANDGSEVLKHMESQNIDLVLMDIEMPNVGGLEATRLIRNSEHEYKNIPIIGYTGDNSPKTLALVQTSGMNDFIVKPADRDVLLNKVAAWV

CCCCCCCCCC(=O)[C@@H](O)CC [CAI-1, (S)-3-hydroxytridecan-4-one]
Light production ([1]; Agonist 0.0119209 nM): 12889 RLU and 8888.9 RLU and 6804.1 RLU
Light production ([1]; Agonist 0.0476837 nM): 14371 RLU and 11556 RLU and 14048 RLU
Light production ([1]; Agonist 0.190735 nM): 19162 RLU and 15751 RLU and 14725 RLU
Light production ([1]; Agonist 0.762939 nM): 27416 RLU and 24171 RLU and 21376 RLU
Light production ([1]; Agonist 3.05176 nM): 42278 RLU and 41455 RLU and 42909 RLU
Light production ([1]; Agonist 12.207 nM): 141302 RLU and 122637 RLU and 126432 RLU
Light production ([1]; Agonist 48.8281 nM): 2056727 RLU and 1989392 RLU and 2067742 RLU
Light production ([1]; Agonist 195.312 nM): 21777960 RLU and 20597350 RLU and 20387370 RLU
Light production ([1]; Agonist 781.25 nM): 68306990 RLU and 63315740 RLU and 60445960 RLU
Light production ([1]; Agonist 3125 nM): 107684000 RLU and 96526460 RLU and 89440220 RLU
Light production ([1]; Agonist 12500 nM): 110460000 RLU and 105858400 RLU and 100769600 RLU
Light production ([1]; Agonist 50000 nM): 108923600 RLU and 92244980 RLU and 92565550 RLU
RLU ([1]; agonist 0.0119209 nM): 6.03E+03 RLU and 5.88E+03 RLU and 4.06E+03 RLU
RLU ([1]; agonist 0.190735 nM): 1.26E+04 RLU and 1.57E+04 RLU and 1.42E+04 RLU
RLU ([1]; agonist 0.762939 nM): 2.01E+04 RLU and 2.32E+04 RLU and 2.34E+04 RLU
RLU ([1]; agonist 3.05176 nM): 2.95E+04 RLU and 3.11E+04 RLU and 2.71E+04 RLU
RLU ([1]; agonist 12.207 nM): 3.67E+04 RLU and 5.35E+04 RLU and 5.22E+04 RLU
RLU ([1]; agonist 48.8281 nM): 1.20E+05 RLU and 1.71E+05 RLU and 1.56E+05 RLU
RLU ([1]; agonist 195.312 nM): 4.96E+06 RLU and 5.24E+06 RLU and 3.77E+06 RLU
RLU ([1]; agonist 781.25 nM): 5.10E+07 RLU and 6.40E+07 RLU and 5.48E+07 RLU
RLU ([1]; agonist 3125 nM): 1.12E+08 RLU and 1.35E+08 RLU and 1.31E+08 RLU
RLU ([1]; agonist 12500 nM): 1.34E+08 RLU and 1.62E+08 RLU and 1.58E+08 RLU
RLU ([1]; agonist 50000 nM): 1.28E+08 RLU and 1.53E+08 RLU and 1.57E+08 RLU
Light production ([2]; 5nM CAI-1, OD600 0.005): 81418.9 RLU and 88175.7 RLU
Light production ([2]; 5nM CAI-1, OD600 0.0328): 3079268 RLU and 3871951 RLU
Light production ([2]; 5nM CAI-1, OD600 0.1753): 587564 RLU
Light production ([2]; 5nM CAI-1, OD600 0.3442): 310866 RLU and 554910 RLU
Light production ([2]; 5nM CAI-1, OD600 0.801): 179775 RLU and 309613 RLU
Light production ([2]; 5nM CAI-1, OD600 1.26): 81746 RLU and 99206.4 RLU
Light production ([2]; 5nM CAI-1, OD600 1.834): 45747000 RLU and 48964010 RLU
Light production ([2]; 5nM CAI-1, OD600 2.816): 21306820 RLU and 22194600 RLU
Light production ([2]; 5nM CAI-1, OD600 3.828): 7523511 RLU and 7967607 RLU
Light production ([2]; 10nM CAI-1, OD600 0.005): 81418.9 RLU and 88175.7 RLU
Light production ([2]; 10nM CAI-1, OD600 0.0309): 3915858 RLU and 6084143 RLU
Light production ([2]; 10nM CAI-1, OD600 0.3229): 637968 RLU and 656550 RLU
Light production ([2]; 10nM CAI-1, OD600 1.126): 88099.5 RLU and 91474.2 RLU
Light production ([2]; 10nM CAI-1, OD600 1.799): 63924400 RLU and 62812670 RLU
Light production ([2]; 10nM CAI-1, OD600 3.014): 33012610 RLU and 33842070 RLU
Light production ([2]; 10nM CAI-1, OD600 3.657): 10363690 RLU and 11730930 RLU
Light production ([2]; 50nM CAI-1, OD600 0.005): 88175.7 RLU and 81418.9 RLU
Light production ([2]; 50nM CAI-1, OD600 0.17): 729000 RLU and 688000 RLU
Light production ([2]; 50nM CAI-1, OD600 1.08): 697000 RLU
Light production ([2]; 50nM CAI-1, OD600 1.1): 90900 RLU and 113000 RLU
Light production ([2]; 50nM CAI-1, OD600 1.96): 526000000 RLU and 531000000 RLU
Light production ([2]; 50nM CAI-1, OD600 2.94): 619000000 RLU and 599000000 RLU
Light production ([2]; 50nM CAI-1, OD600 3.55): 346000000 RLU and 321000000 RLU
Light production ([2]; 100nM CAI-1, OD600 0.005): 81418.9 RLU and 88175.7 RLU
Light production ([2]; 100nM CAI-1, OD600 0.0305): 3670000 RLU and 6790000 RLU
Light production ([2]; 100nM CAI-1, OD600 0.1651): 654000 RLU and 1050000 RLU
Light production ([2]; 100nM CAI-1, OD600 0.3167): 332000 RLU and 388000 RLU
Light production ([2]; 100nM CAI-1, OD600 0.721): 196000 RLU and 241000 RLU
Light production ([2]; 100nM CAI-1, OD600 1.101): 2280000 RLU
Light production ([2]; 100nM CAI-1, OD600 2.679): 3170000000 RLU
Light production ([2]; 100nM CAI-1, OD600 3.677): 1830000000 RLU and 1870000000 RLU
Light production ([2]; 200nM CAI-1, OD600 0.005): 81418.9 RLU and 88175.7 RLU
Light production ([2]; 200nM CAI-1, OD600 0.0621): 2130000 RLU and 2790000 RLU
Light production ([2]; 200nM CAI-1, OD600 0.3026): 568000 RLU and 806000 RLU
Light production ([2]; 200nM CAI-1, OD600 0.5074): 946000 RLU and 1180000 RLU
Light production ([2]; 200nM CAI-1, OD600 0.5715): 2260000 RLU and 2870000 RLU
Light production ([2]; 200nM CAI-1, OD600 1.099): 27300000 RLU and 26900000 RLU
Light production ([2]; 200nM CAI-1, OD600 1.844): 5910000000 RLU
Light production ([2]; 200nM CAI-1, OD600 2.341): 8370000000 RLU and 9230000000 RLU
Light production ([2]; 200nM CAI-1, OD600 3.352): 11800000000 RLU and 12600000000 RLU
Light production ([2]; 200nM CAI-1, OD600 4.26): 7350000000 RLU and 7860000000 RLU
Light production ([2]; 400nM CAI-1, OD600 0.005): 81418.9 RLU and 88175.7 RLU
Light production ([2]; 400nM CAI-1, OD600 0.0614): 1510000 RLU and 1840000 RLU
Light production ([2]; 400nM CAI-1, OD600 0.3014): 358000 RLU and 392000 RLU
Light production ([2]; 400nM CAI-1, OD600 0.5621): 3290000 RLU and 3630000 RLU
Light production ([2]; 400nM CAI-1, OD600 1.037): 74300000 RLU and 84000000 RLU
Light production ([2]; 400nM CAI-1, OD600 1.532): 10100000000 RLU
Light production ([2]; 400nM CAI-1, OD600 2): 31900000000 RLU and 31800000000 RLU
Light production ([2]; 400nM CAI-1, OD600 3.04): 22900000000 RLU and 24900000000 RLU
Light production ([2]; 400nM CAI-1, OD600 3.35): 22600000000 RLU and 24400000000 RLU
CAI-1 concentration at which induction of bioluminescence occurred [2, 5]: 50 nM
CAI-1 concentrations that failed to activate a QS response [2, 5]: below 50 nM
CAI-1 concentrations that fully induced QS [2, 5]: above 200 nM
RLU ([3]; CAI-1 0.0119209 nM): 2.86E+07 RLU
RLU ([3]; CAI-1 0.0476837 nM): 2.99E+07 RLU
RLU ([3]; CAI-1 0.190735 nM): 2.91E+07 RLU
RLU ([3]; CAI-1 0.762939 nM): 2.65E+07 RLU
RLU ([3]; CAI-1 3.05176 nM): 3.77E+07 RLU
RLU ([3]; CAI-1 12.207 nM): 1.29E+08 RLU
RLU ([3]; CAI-1 48.8281 nM): 1.08E+09 RLU
RLU ([3]; CAI-1 195.312 nM): 1.14E+10 RLU
RLU ([3]; CAI-1 781.25 nM): 7.27E+10 RLU
RLU ([3]; CAI-1 3125 nM): 1.12E+11 RLU
RLU ([3]; CAI-1 12500 nM): 1.47E+11 RLU
RLU ([3]; CAI-1 50000 nM): 1.61E+11 RLU
% Total Phosphorylation ([4]; agonist 0.32 uM): 95.2512% and 79.8407% and 88.8244% and 85.3997% and 90.9887%
% Total Phosphorylation ([4]; agonist 0.64 uM): 113.145% and 87.5268% and 103.834% and 64.446% and 85.0733% and 67.8245%
% Total Phosphorylation ([4]; agonist 1.28 uM): 54.1919% and 72.6606% and 66.4662% and 63.8968% and 70.5235% and 55.5883%
% Total Phosphorylation ([4]; agonist 6.4 uM): 11.8696% and 10.1556% and 13.3867% and 14.118% and 13.0644% and 14.5467%
% Total Phosphorylation ([4]; agonist 8 uM): 8.344% and 11.4086% and 9.0715% and 10.6327% and 12.5012% and 11.7307%
% Total Phosphorylation ([4]; agonist 10 uM): 12.437% and 6.165% and 12.0698% and 9.199% and 10.7397% and 9.533%
% Total Phosphorylation ([4]; agonist 15 uM): 6.329% and 4.395% and 5.101% and 4.035% and 5.504% and 5.125%
